Results reported in patent EP0314302A2, “Herbicidal o-carbomethoxy-sulfonylureas” (E.I. DU PONT DE NEMOURS AND COMPANY, priority 1987, dated 1989).

Columns and labels:
[1] = system: Guinea Grass; test: Test 3 postemergence weed control; assay type: in vivo, Panicum maximum; settings: 32 g/ha, scale 0-100
Procedure: (§1) Seeds of crabgrass (Digitaria spp), guinea grass (Panicum maximum) and narrowleaf panicum (P. maximum) were planted in 15-cm plastic pots. The weeds were treated postemergence with compound I, formulated in a non-phytotoxic solvent, when the plants had 3 or more leaves and had tillered. The degree of weed control was visually rated 17 days after compound application (DAT). Control ratings were based on a scale of 0 to 100 where 0 = no effect, 20 = minimal control and 100 = complete control.

[2] = system: Sandbur; test: Test 11 citrus pots, preemergence to the weeds; assay type: in vivo, Cenchrus echinatus; settings: Preemergence 32 g/ha; 0.25% X-77 surfactant; scale 0-100
Procedure: (§2) Budded citrus seedlings were planted in 30-liter plastic pots which were also seeded with sandbur, guineagrass, narrowleaf panicum, common ragweed, yellow nutsedge, purple nutsedge and bindweed. Compound I was applied preemergence and postemergence to the weeds. Treatments were sprayed to simulate the trunk-to-trunk herbicide application method used in some citrus groves. The compound was also applied postemergence to weeds grown in windowsill flats. The flats were filled with planting medium and seeded with morningglory (Ipomoea spp.). purple nutsedge (Cyperus rotundus), pigweed (Amaranthus spp.), bindweed (Convolvulus spp.), narrowleaf panicum (Panicum maximum), common ragweed (Ambrosia artemisiifolia), sandbur (Cenchrus echinatus), itchgrass (Rottboellia exaltata), johnsongrass (Sorghum halepense), guineagrass (Panicum maximum), smooth crabgrass (Digitaria ischaemum), broadleaf signalgrass (Brachiaria platyphylla), bermudagrass (Cynodon dactylon), goosegrass (Eleusine indica), large crabgrass (Digitaria sanguinalis) and yellow nutsedge (Cyperus esculentus).
(§3) The compound was formulated and sprayed with 0.25% X-77 surfactant in water. Plants were visually rated 21 and 29 days after treatment and compared with appropriate controls. Injury ratings were based on the scale of 0 to 100, where 0 indicates no effect, 20 indicates minimum effect and 100 indicates complete control. […]

[3] = system: Sowthistle; test: Test 9 postemergence; assay type: in vivo, Sonchus spp; settings: scale 0-100
Procedure: (§4) Plastic windowsill pots containing planting medium were seeded with bahiagrass, bindweed (Convolvulus spp), guinea grass (Panicum maximum), large crabgrass (Digitaria sanguinalis) and pigweed (Amaranthus spp). Individual 15-cm plastic pots contained sandbur (Cenchrus echinatus), Mikania cordata, Boston fern (Nephrolepis exalata), quackgrass (Agropyron repens), elephantgrass (Pennisetum purpureum) and sowthistle (Sonchus spp) plants.
(§5) Plants were treated postemergence with Compound I formulated in a non-phytotoxic solvent. Plants were visually rated 22 days after treatment (DAT). Injury and weed control ratings were based on the scale of 0 to 100 where 0 = no effect, 20 = minimal control and 100 = complete control.

[4] = system: Guinea Grass; test: Test 9 postemergence; assay type: in vivo, Panicum maximum; settings: 16 g/ha, scale 0-100
Procedure: as §4, §5

[5] = system: Itchgrass; test: Test 11 windowsill flats, postemergence; assay type: in vivo, Rottboellia exaltata; settings: Postemergence 32 g/ha, 0.25% X-77 surfactant, scale 0-100
Procedure: as §2, §3

[6] = system: Sandbur; test: Test 11 citrus pots, postemergence to the weeds; assay type: in vivo, Cenchrus echinatus; settings: Postemergence 32 g/ha, 0.25% X-77 surfactant, scale 0-100
Procedure: as §2, §3

[7] = system: Yellow nutsedge; test: Test 11 citrus pots, preemergence to the weeds; assay type: in vivo, Cyperus esculentus; settings: Preemergence 32 g/ha; 0.25% X-77 surfactant; scale 0-100
Procedure: as §2, §3

[8] = system: Crabgrass; test: Test 3 postemergence weed control; assay type: in vivo, Digitaria spp; settings: scale 0-100
Procedure: as §1

[9] = system: Sour Lemon; test: Test 12 over-the-top application, postemergence; assay type: in vivo; settings: 26 days after treatment, scale 0-100
Text: The object of this test was to evaluate the safety of sour lemon to the over-the-top application of Compound I and control of lantana (Lantana camara) and trumpetcreeper (Campsis radicans). Plants were sprayed postemergence with Compound I formulated in a non-phytotoxic solvent. Treated plants were visually rated 26 days after treatment and compared with appropriate controls. Injury ratings were based on the scale of 0 to 100, where 0 indicates no effect, 20 indicates minimal effect and 100 indicates complete control.

[10] = system: Bahia grass; test: Test 9 postemergence; assay type: in vivo, bahiagrass; settings: 16 g/ha, scale 0-100
Procedure: as §4, §5

[11] = system: Red clover; test: Test 7 postemergence; assay type: in vivo, Trifolium pratense; settings: scale 0-100
Procedure: (§6) Individual 11.4-cm plastic pots filled with planting medium were seeded with rape, wild radish (Raphanus raphanistruna). tansy mustard (Descurainia pinnata), ball mustard (Neslia paniculata), black mustard (Brassica nigra), yellow mustard, brown mustard, lentils, safflower, flax, sunflower, peanut, vetch, alfalfa, field bean, pea, violet (Viola spp), Kochia (Kochia spp), Russian thistle (Salsola spp), Matricaria spp, groundsel (Senecio spp), shepherdspurse (Capsella bursa-pastoris), nightshade (Solanum spp), sowthistle (Sonchus spp), sugar beet, wheat, "Bonanza" barley and "Morex" barley, Kentucky bluegrass (Poa pratensis), red clover (Trifolium pratense), dandelion (Taraxacum spp) and buckhorn plantain (Plantago lanceolata).
(§7) Plants were treated postemergence with the compound formulated with a non-phytotoxic carrier. Plants were visually rated 18 days after treatment (DAT). Response ratings were based on the scale of 0 to 100 where 0 = no effect, 20 = minimal injury and 100 = complete control.

[12] = system: Viola; test: Test 7 postemergence; assay type: in vivo, Viola spp; settings: scale 0-100
Procedure: as §6, §7

[13] = system: Purple nutsedge; test: Test 11 windowsill flats, postemergence; assay type: in vivo, Cyperus rotundus; settings: Postemergence 32 g/ha, 0.25% X-77 surfactant, scale 0-100
Procedure: as §2, §3

[14] = system: Rape; test: Test 10 postemergence safety to crops and weed control; assay type: in vivo; settings: 16 g/ha, scale 0-100
Procedure: (§8) The object of these tests was to evaluate the compound of this invention for postemergence safety to crops and weed control. Seedling and budded Macedine grapes were grown in 11.4-cm pots. Flax, green foxtail (Setaria viridis), "Morex" barley, wild oats (Avena fatua), "Era" wheat, annual ryegrass (Lolium multiflorum), wild radish (Raphanus raphanistrum), rape, sunflower, chickweed (Stellaria media) and wild buckwheat (Polygonum convolvulus) were seeded in windowsill pots.
(§9) The plants were sprayed postemergence with Compound I in a non-phytotoxic solvent. Plants were visually rated 15 and 27 days after treatment (DAT). Injury and weed control ratings were based on the scale of 0 to 100 where 0 = no effect, 20 minimal control and 100 = complete control.

[15] = system: Flax; test: as above; assay type: in vivo; settings: 16 g/ha, scale 0-100
Procedure: as §8, §9

[16] = system: Era wheat; test: as above; assay type: in vivo; settings: 16 g/ha, scale 0-100
Procedure: as §8, §9

[17] = system: Sunflower; test: as above; assay type: in vivo; settings: 16 g/ha, scale 0-100
Procedure: as §8, §9

[18] = system: Morex barley; test: as above; assay type: in vivo; settings: 16 g/ha, scale 0-100
Procedure: as §8, §9

[19] = system: Guineagrass; test: Test 11 citrus pots, preemergence to the weeds; assay type: in vivo, Panicum maximum; settings: Preemergence 32 g/ha; 0.25% X-77 surfactant; scale 0-100
Procedure: as §2, §3

[20] = system: Narrowleaf panicum; test: Test 11 citrus pots, preemergence to the weeds; assay type: in vivo, Panicum maximum; settings: Preemergence 32 g/ha; 0.25% X-77 surfactant; scale 0-100
Procedure: as §2, §3

[21] = system: Citrus; test: Test 11 citrus pots, preemergence to the weeds; assay type: in vivo; settings: Preemergence 32 g/ha; 0.25% X-77 surfactant; scale 0-100
Procedure: as §2, §3

COC(=O)c1cccnc1S(=O)(=O)NC(=O)Nc1nc(OC)cc(OC)n1 [Compound I, 2-[[(4,6-dimethoxypyrimidin-2-yl)aminocarbonyl]aminosulfonyl]-3-pyridinecarboxylic acid, methyl ester]
Control Rating 17 DAT [1]: 70
Injury ratings [2]: 100
Plant Injury Rating 22 DAT ([3]; 8 g/ha): 60
Plant Injury Rating 22 DAT ([3]; 16 g/ha): 70
Plant Injury Rating 22 DAT ([3]; 32 g/ha): 100
Plant Injury Rating 22 DAT [4]: 60
Injury ratings [5]: 100
Injury ratings [6]: 100
Injury ratings [7]: 100
Control Rating 17 DAT ([8]; 8 g/ha): 50
Control Rating 17 DAT ([8]; 16 g/ha): 70
Control Rating 17 DAT ([8]; 32 g/ha): 100
Injury ratings ([9]; 8 g/ha): 20
Injury ratings ([9]; 16 g/ha): 50
Injury ratings ([9]; 32 g/ha): 70
Plant Injury Rating 22 DAT [10]: 40
Plant Injury Rating 18 DAT ([11]; 16 g/ha): 100
Plant Injury Rating 18 DAT ([11]; 32 g/ha): 100
Plant Injury Rating 18 DAT ([12]; 16 g/ha): 100
Plant Injury Rating 18 DAT ([12]; 32 g/ha): 100
Injury ratings [13]: 100
Plant Injury Rating 15 DAT [14]: 100
Plant Injury Rating 15 DAT [15]: 100
Plant Injury Rating 15 DAT [16]: 100
Plant Injury Rating 15 DAT [17]: 100
Plant Injury Rating 15 DAT [18]: 100
Injury ratings [19]: 100
Injury ratings [20]: 80
Injury ratings [21]: 0
